Assay results taken from patent US7033593B2, “Immunogen comprising an HIV envelope protein, a ligand and H2 peptide” (priority 2000, dated 2006).
Entries after “also recorded” stand apart in the source; their conditions may differ. Read-outs that look alike come from different tables or passages of the source.

Columns and labels:
[1] = system: sCD4-gp140 (HIV 89.6 gp140); test: SPR binding of HR-2 peptides to sCD4-gp140 complex
Protocol: SPR biosensor measurements were determined on a BIACORE 3000 (BIACORE Inc., Uppsala, Sweden) instrument. […] Binding of proteins and peptides was monitored in real-time at 25° C. and with a continuous flow of PBS, pH 7.4 at […]. Analyte (proteins and peptides) were removed and the sensor surfaces were regenerated following each cycle of binding by single or duplicate […] of regeneration solution (10 mM glycine-HCl, pH 2.5 or 10 mM NaOH).
All analyses were performed using the non-linear fit method of O'Shannessy et al. (O'Shannessy et al, Anal. Biochem. 205:132–136 (1992)) and the BIAevaluation 3.0 software (BIACORE Inc). Rate and equilibrium constants were derived from curve fitting to the Langmuir equation for a simple bimolecular interaction (A+B=AB).
A blank chip served as an in-line reference surface for subtraction of non-specific binding and bulk responses.
Surface Plasmon Resonance Biosensor Measurements. SPR biosensor measurements were determined on a BIACORE 3000 (BIACORE Inc., Uppsala, Sweden) instrument. […] A blank in-line reference surface (activated and de-activated for amine coupling) was used to subtract non-specific or bulk responses. Binding of proteins and peptides (biotinylated or free DP178, T649Q26L, DP178-scrambled) was monitored in real-time at 25° C. with a continuous flow of PBS (150 mM NaCl, 0.005% surfactant p20), pH 7.4 at 10–30 μl/min. Analyte (proteins and peptides) were removed and the sensor surfaces were regenerated following each cycle of binding by single or duplicate 5–10 μl pulses of regeneration solution (10 mM glycine-HCl, pH 2.5 or 10 mM NaOH).

[2] = system: gp41-gp120-sCD4 complex (ADA gp41, 89.6 gp120); test: SPR binding of DP178 to gp41-gp120 and gp41-gp120-sCD4 complexes; parameters: species or system HIV; conditions: DP178 50 μg/ml
Protocol: FIGS. 17A and 17B show induction of HR-2 peptide binding to gp120-gp41 complex. […] Soluble 89.6 gp120 (100 μg/ml) or a gp120-CD4 mixture (gp120 pre-incubated with 0.3 mg/ml of CD4 for 30 min) was injected at 5 μl/min for 10 min over a sensor surface immobilized with ADA gp41. At the end of the injections, wash buffer (PBS) was allowed to flow until the surface was stable with no baseline drift. Roughly 300 RU of gp120 and 850 RU of gp120-CD4 formed stable complexes with the immobilized gp41 surface. […] Thus both surfaces were stable and had equivalent amount of associated gp120 or gp120-CD4.
In the preparation of HIV 89.6 gp140 envelope, there is uncleaved gp140, and cleaved gp140 components of gp120 and gp41. Thus, it is possible that HR-2 peptide could be induced to bind uncleaved gp140 and/or could be induced to bind to cleaved gp120 and gp41.

## enfuvirtide
[1]; SPR
  binding to sCD4-gp140 surface (in words): much higher binding; also recorded: bound specifically
[1]; Scatchard plot, read-out: Keq (equilibrium binding constant)
  Kd: 1.7 µM
[1]; cleaved gp140 after sCD4
  kd (off-rate): 0.0056 s⁻¹
[1]; sCD4-gp140 complexes, without CCR5-D1, read-out: Kd
  Kd: 0.7 µM
[1]; sCD4-gp140 vs gp41
  Keq stronger than for recombinant gp41: 10 fold
[1]; with sCD4
  Rm (maximal binding at equilibrium): 320 RU
[1]; with vs without sCD4
  increase of Rm by soluble CD4: ~10 fold
[2]
  binding to gp41-gp120(-sCD4) complex compared to gp41 (in words): upregulated; also recorded: higher binding
